These results are taken from US20010028879A1, “Inhibition of graft versus host disease” (priority 1998, published 2001).

Molecules are shown by their SMILES. Like-named read-outs stand apart in the source and are kept apart here.

This assay concerns Peripheral human blood mononuclear cells PBMCs. To be noted: for Cytokine Profile: after 7 days. The method, then:
Peripheral human blood mononuclear cells PBMCs, which is a collection of white blood cells comprising about 40% T-cells, were stressed by contact with aqueous solutions of hydrogen peroxide, of various concentrations, for 20 minutes. Their immediate survival was measured, along with their immediate phytohaemagglutinin (PHA) response. Then their survival after 24 hours was measured, followed by their PHA response (tritiated thymidine uptake following mitogenic stimulation with PHA) and cytokine profile after 7 days.

For `OO` [Example H2O2, hydrogen peroxide], the “24 hr survival %” value is, setting by setting: (100 μmole/L H2O2, 20 minutes) 100%; (300 μmole/L H2O2, 20 minutes) 50%; (1 mmole/L H2O2, 20 minutes) 40%; (3 mmole/L H2O2, 20 minutes) 40%. Besides, the “Immediate PHA response” value (100 μmole/L H2O2, 20 minutes) stood at 2000; the “Immediate PHA response” value (300 μmole/L H2O2, 20 minutes) was determined as 2000; the “Immediate PHA response” value (1 mmole/L H2O2, 20 minutes) came to 400; the “Immediate PHA response” value (3 mmole/L H2O2, 20 minutes) came out at 400. Also, the Immediate survival % runs as follows: (100 μmole/L H2O2, 20 minutes) 80-90%; (300 μmole/L H2O2, 20 minutes) 80-90%; (1 mmole/L H2O2, 20 minutes) 80-90%; (3 mmole/L H2O2, 20 minutes) 80-90%. The “Cytokine Profile” value is, setting by setting: (100 μmole/L H2O2, 20 minutes) “IFN↓”; (300 μmole/L H2O2, 20 minutes) “IFN↓”; (1 mmole/L H2O2, 20 minutes) “IFN↓”; (3 mmole/L H2O2, 20 minutes) “IFN↓”.
